Values after ≈ are worked out from the molar mass of the structure shown. Where a SMILES comes first, the peptide text is derived from it.
What was measured:
[1] = test system: methicillin-resistant S. aureus (MRSA 3730592); format: cell-based, Staphylococcus aureus; settings: Methicillin-Resistant S. aureus—MRSA clinical isolate 3730592; 5×10^5 CFU.ml^−1, Mueller-Hinton Broth, 37°C, 24 h, OD 595 nm, biological triplicates
Description: Susceptibility tests were performed using clinical isolates of Klebsiella pneumoniae carbapenemase (KPC 1410503) and methicillin-resistant S. aureus (MRSA 3730592). Tests were also performed with ATCC (American Type Culture Collection) isolates of K. pneumoniae (ATCC 13883) and S. aureus (ATCC 25923).
Two multidrug-resistant clinical isolates and two ATCC isolates were chosen to perform microbial susceptibility testing as models for studies with bacteria susceptible to antimicrobials found in the Gram-Positive and Gram-Negative groups of bacteria.
The broth microdilution method was performed according to the Clinical and Laboratory Standards Institute (CLSI) M07-A10 protocol to determine the Minimum Inhibitory Concentration (MIC; [Clinical Laboratory Standards Institute, 2015]). The assay was performed on 96-well microplates (TPP, United States), containing 5×10^5 CFU.ml^−1 of each tested bacterium per well and different peptide micromolar concentrations (Table 1) in a final volume of 100 μl of Mueller-Hinton Broth (MH). Negative control was represented by bacteria incubated in MH medium, while positive control was represented by culture incubated in MH medium with Amikacin. Plates were kept under agitation at 37°C in a BioTek spectrophotometer (PowerWaveTM HT Microplate Reader) with optical density (OD) readings at 595 nm every 30 min for 24 h. Inhibition results were analyzed using GraphPad Prism 8 software by comparing the OD from negative control wells (100%) to those containing peptides. All tests were performed in biological triplicates.

RAW 264.7 cells = assay: MTT cytotoxicity test against RAW 264.7; format: cell-based, mice; settings: 24 h; for toxicity against RAW264.7 cells (in words): tested concentrations of Table 1 (128–16 μg.ml^−1)
Description: The cell line RAW 264.7 was obtained from the Rio de Janeiro Cell Bank (CR108). These cells are macrophages derived from induced tumors in male BALB/c mice infected with Abelson’s murine leukemia virus ([Raschke et al., 1978]). RAW264.7 cells were grown in DMEM medium (Dulbecco’s Modified Eagle’s medium, composed of CaCl2 (anhydrous) 200 mg.ml^−1, Fe(NO3).9H2O 0.1 mg.ml^−1, KCL 400 mg.ml^−1, MgSO4 (anhydrous) 97.67 mg.ml^−1, NaCL 6.400 mg.ml^−1, NaH2PO4.H2O 125 mg.ml^−1) supplemented with 10% (v/v) of bovine fetal serum, 0.5% (v/v) of DMEM amino acid solution, 0.05% (w/v) gentamicin, 0.5% (w/v) of L-glutamine, and 0.5% (w/v) of penicillin/streptomycin (1,000 U.ml^−1) in an incubator containing 5% CO2, at 37°C, and 95% humidity ([Raschke et al., 1978]; [Nguyen et al., 2017]).
RAW 264.7 cells were seeded in 96-well plates, at a concentration of 10^4 cells/well, and incubated for 24 h. Each peptide was subsequently added at different micromolar concentrations (Table 1). Positive control was performed by cells in culture medium and negative control, as cell culture in lysis solution (10 mM Tris, 1 mM EDTA, and 0.1% Triton X-100, pH 7.4).
(§1) Cell viability analyses were performed in technical and biological replicates, and readings were obtained after 24 h of contact with peptides. At the end of the incubation period, MTT (Sigma-Aldrich, United States) was used to assess the ability of living cells to reduce salt 3-[4,5-dimethylthiazole-2-yl]-2,5-diphenyltetrazolium bromide for formazan production. Plates were read at 570 ηm ([Mosmann, 1983]) and results were expressed in the percentage of living cells. The results were analyzed using GraphPad Prism 8 software where a One-Way ANOVA statistical test was followed by Bonferroni’s multiple comparisons test.

[2] = test system: Human fibroblast (Hfib) cells; assay: MTT cytotoxicity test against human fibroblasts (Hfib); format: cell-based; settings: 24 h; for cytotoxicity against Hfib cells at the other concentrations (in words): concentrations other than the highest
Description: Human fibroblast (Hfib) cell cultures were cultivated in Dulbecco’s Modified Eagle Medium (DMEM; Sigma-Aldrich, United States) supplemented with 10% fetal bovine serum (Sigma-Aldrich). Hfib were cultured in a humidified incubator containing 5% CO2 at 37°C and 95% humidity.
Hfib cell line was seeded onto 96-well plates (1 × 10^3 cells/well, 100 μl) before treatment and allowed to adhere and grow over the 24 h period. Each peptide was subsequently added at different micromolar concentrations. The results were evaluated using GraphPad Prism 8 software, where a One-Way ANOVA statistical test followed by Bonferroni’s multiple comparisons test was performed.
as §1

[3] = test system: Spodoptera frugiperda (SF21) cells; assay: In vitro test against insect cells (MTT); format: cell-based; settings: 24 h
Description: To evaluate the ability of the peptides to cause lysis and morphological changes in insect cells ([Dutra, 2019]; Patent: BR 102022 006138 6) as a first screening of the insecticidal activity of the peptides, in this work, the Spodoptera IPLB-SF-21AE _LVI-Cenargen cell line ([Vaughn et al., 1977]) was used and different concentrations of the peptides were added to the culture medium.
Cells were maintained at 27°C in TNMFH medium (Grace’s insect medium supplemented with lactalbumin hydrolyzate and yeastolate), supplemented with 10% (v/v) fetal bovine serum (Sigma-Aldrich; [Castro et al., 2006]).
Cell cultivation was carried out in 10 ml culture bottles, model K11-1050 25cm^2, with 5 ml of culture medium per bottle. For the assays, the SF21 cells were grown in TNMFH medium, added 10% (v/v) of bovine fetal serum, and distributed in plates of 96 wells at the concentration of 2×10^4 cells per well, after counting was performed in the Neubauer chamber. Cell suspension was distributed in a volume of 100 μl per well. Peptides were diluted in TNMFH medium and 100 μl of medium with peptide was added, obtaining concentrations of 10, 5, and 1 μM, reaching the volume of 200 μl at the final concentrations of reaction per well. Cells were placed in incubation at 27°C, for 24 h.
After 24 h, the cells were analyzed for their modifications, morphological alterations, turbidity of the medium, formation of clumps, and/or lysis in the presence of peptides, by observation under optical microscopy (Nikon Eclipse TS100) with 20× and 40× magnification. Characteristics that could represent cell death or cell dysfunction caused by the peptides were observed compared to control cells. Cells were evaluated by cell viability using the MTT test 3-[4,5-dimethylthiazole-2-yl]-2,5-diphenyltetrazolium bromide 0.5 mg.ml^−1 (Sigma-Aldrich). To perform the test, the cell culture medium was discarded, and we added 100 μl of new medium. Ten μl of MTT was added to each well and incubated for 4 h, with the plates protected from light. After 4 h, we added 100 μl of DMSO to each well to dissolve the formazan crystals, and the reading in the microplate reader ([Riss et al., 2016]) was then performed. The results were analyzed using GraphPad Prism 8 software, where a One-Way ANOVA statistical test was followed by Bonferroni’s multiple comparisons test.

[4] = lowest concentration tested (1 μM)

SMILES | Minimum inhibitory concentration (MIC) [1] [µM] | cell viability in RAW264.7 cells from the MIC concentration found for MRSA3730592, S. aureus ATCC25923, K. pneumoniae ATCC13883 (RAW 264.7 cells; at the MIC of R8b for these strains (17.60 μM in Table 3)) [%] | Hfib cells killed at the highest concentration ([2]; 70.43 (highest concentration)) [%] | cytotoxicity against Hfib cells at the other concentrations (in words) [2] | cell viability (SF21) [3, 4] | cell viability (RAW264.7) in the MIC found for the two strains of S. aureus (RAW 264.7 cells; at the MIC of R6b for these strains (17.7 μM in Table 3)) [%] | toxicity against RAW264.7 cells (in words) (RAW 264.7 cells) | activity on Hfib cells, reducing the cell viability (in words) ([2]; 35.4 μM) | Hfib cells eradicated ([2]; 70.8 μM) [%] | cell viability in RAW cells at the MIC value found for bacteria (RAW 264.7 cells; 17.07 and 8.53 μM) | Hfib cells killed at the highest concentration ([2]; 68.3 (highest concentration)) [%] | toxicity to RAW264.7 cells at the MIC concentration (in words) (RAW 264.7 cells; R1b: MIC found for KPC1410503, R3b: MIC at high concentrations against all tested microorganisms) | cytotoxic effect on Hfib cells (in words) ([2]; all concentrations tested) | viable cells (SF21) ([3]; 10 μM) [%] | cell viability (SF21) ([3]; 5 and 1 μM)
CC(C)C[C@H](NC(=O)[C@H](C)NC(=O)CNC(=O)[C@H](Cc1ccccc1)NC(=O)CN)C(=O)N[C@@H](Cc1ccccc1)C(=O)N[C@@H](CCCCN)C(=O)N[C@@H](CCCNC(=N)N)C(=O)N[C@@H](CC(C)C)C(=O)N[C@@H](C)C(=O)N[C@@H](CCCCN)C(=O)N[C@@H](C)C(=O)N[C@H](C(=O)N[C@@H](C)C(=O)N[C@@H](CCCCN)C(=O)N[C@@H](C)C(=O)N[C@H](C(=O)N[C@@H](C)C(N)=O)C(C)C)C(C)C [Peptide R8b] (H-GFGALFKRLAKAVAKAVA-NH2) | 17.60 (≈ 32 µg/mL) | 59 | 100 | not harmful | below 50% | – | – | – | – | – | – | – | – | – | –
CC(C)C[C@H](NC(=O)[C@H](C)NC(=O)CNC(=O)[C@H](Cc1ccccc1)NC(=O)CN)C(=O)N[C@@H](Cc1ccccc1)C(=O)N[C@@H](CCCCN)C(=O)N[C@@H](Cc1ccccc1)C(=O)N[C@@H](CC(C)C)C(=O)N[C@@H](C)C(=O)N[C@@H](CCCCN)C(=O)N[C@@H](C)C(=O)N[C@H](C(=O)N[C@@H](C)C(=O)N[C@@H](CCCCN)C(=O)N[C@@H](C)C(=O)N[C@H](C(=O)N[C@@H](C)C(N)=O)C(C)C)C(C)C [Peptide R6b] (H-GFGALFKFLAKAVAKAVA-NH2) | 17.7 (≈ 32 µg/mL) | – | – | – | below 50% | 62 | high toxicity | slight activity | 100 | – | – | – | – | – | –
CC(C)C[C@H](NC(=O)[C@H](CCCNC(=N)N)NC(=O)[C@H](CCCCN)NC(=O)[C@H](Cc1ccccc1)NC(=O)[C@H](CC(C)C)NC(=O)[C@H](CCCCN)NC(=O)CNC(=O)[C@H](Cc1ccccc1)NC(=O)CN)C(=O)N[C@@H](C)C(=O)N[C@@H](CCCCN)C(=O)N[C@@H](C)C(=O)N[C@H](C(=O)N[C@@H](C)C(=O)N[C@@H](CCCCN)C(=O)N[C@@H](C)C(=O)N[C@H](C(=O)N[C@@H](C)C(N)=O)C(C)C)C(C)C [Peptide R10b] (H-GFGKLFKRLAKAVAKAVA-NH2) | 8.53 (≈ 16 µg/mL) | – | – | not harmful | below 50% | – | high toxicity | – | – | more than 50% | 100 | – | – | – | –
CC(C)C[C@H](NC(=O)[C@H](C)NC(=O)CNC(=O)[C@H](Cc1ccccc1)NC(=O)CN)C(=O)N[C@@H](Cc1ccccc1)C(=O)N[C@@H](CCCCN)C(=O)N[C@@H](CCCNC(=N)N)C(=O)N[C@@H](CC(C)C)C(=O)N[C@@H](C)C(=O)N[C@@H](CCCCN)C(=O)N[C@@H](CCCCN)C(=O)N[C@H](C(=O)N[C@@H](C)C(=O)N[C@@H](CCCCN)C(=O)N[C@H](C(=O)N[C@H](C(=O)N[C@@H](C)C(N)=O)C(C)C)[C@@H](C)O)C(C)C [Peptide R3b] (H-GFGALFKRLAKKVAKTVA-NH2) | 67.21 (≈ 128 µg/mL) | – | – | – | – | – | high toxicity | – | – | – | – | toxic | did not show any cytotoxic effect | 14 | greater than 50%

— article PMC9433906, “Evaluation of the biotechnological potential of peptide Cupiennin 1a and analogs” (Frontiers in Microbiology, 2022)
